Data on 13 compounds can be found in patent US10064800B2, “Transglutaminase activator” (Kao Corporation, priority 2012, dated 2018).

For assay [1], the system named is transglutaminase. In words: Measurement of transglutaminase activity in lysate of treated keratinocytes (Transglutaminase Colorimetric Microassay Kit). In kind it is cell-based, human. Particulars: for Transglutaminase activity: HEKn cells, 3 days, relative value, n = 3.
The test system of assay [2] is Normal human epidermal keratinocytes NHEK(F). As to the kind of experiment: Verification of ceramide production enhancing effect (TLC of cell lipids). The settings on record: 3 days, 0.1 μM, relative value, 50 vol % ethanol = 1. In kind it is cell-based. How it is done:
Normal human epidermal keratinocytes (trade name: NHEK(F), manufactured by Kurabo Industries, Ltd.) were cultured under the conditions of 37° C. and 5% CO2, in a culture medium (trade name: EpiLife-KG2, manufactured by Kurabo Industries, Ltd.) using a culture plate.
Thereafter, the culture medium was exchanged with EpiLife-KG2 without growth factors such as epidermal growth factor, and a dilution prepared from the extract from Justicia procumbens prepared in the Preparation Example 1-2, the concentration of which was adjusted to 1 w/v % in terms of solids content, […] Alternatively, the culture medium was exchanged with EpiLife-KG2 without growth factors such as epidermal growth factor, and a dilution prepared from the extract from Peristrophe japonica prepared in the Preparation Example 2-2, the concentration of which was adjusted to 1 w/v % in terms of solids content, was added to the culture fluid in an amount of 0.1%. […]
Further, 0.1 N NaOH and a 1% aqueous SDS solution were added to the cells from which lipids had been extracted, and the mixture was heated at 60° C. for 2 hours to thereby solubilize proteins. […] The amount of proteins was quantified by the BCA method. […]
A ceramide amount was measured using recovered cells in a manner similar to Test Example 2-1. […]

Assay [3] deals with IVL gene. As to the kind of experiment: Evaluation of IVL gene expression (Real-time RT-PCR, HaCaT). Type of assay: cell-based, human. Particulars: 24 hours, 0.01 μM, corrected by RPLPO, relative value, DMSO = 1. As for the experimental part:
Human epidermal keratinocyte line HaCaT was cultured in a culture medium in which 10% fetal calf serum inactivated, and 1% penicillin-streptomycin (manufactured by Gibco Laboratories) were added to DMEM (manufactured by Gibco Laboratories), under conditions of 37° C. and 5% CO2.
In a 6-well plate, HaCaT cells were seeded in an amount of 5×10^4 pieces/well, and cultured. On the following day, exchange was carried out for a culture medium containing the exemplified compound (18) at a final concentration shown in Table 10, and culture was further carried out for 24 hours. In place of the exemplified compound (18), as a control, exchange was carried out for a culture medium containing at a final concentration of 0.1% v/v DMSO being a solvent, and culture was further carried out for 24 hours, and thus the resultant cultured product was used. After 24 hours from addition of the exemplified compound (18), the cells were washed twice using PBS(−), and total RNA was extracted using RNeasy (registered trademark) Mini Kit (manufactured by QIAGEN). A concentration of total RNA was measured, and a fixed amount of total RNA was used as a template, and a reverse transcription reaction was carried out using High capacity RNA-to-cDNA Kit (trade name, manufactured by Applied Biosystems, Inc.).
IVL gene expression was quantitatively determined from the resultant cDNA by Real-time RT-PCR. […]

Setting [4] is: evaluated conc. 0.01 μM, control DMSO = 1.
Where [5] appears, read: evaluated conc. 0.1 μM, control DMSO = 1.
Setting [6] is: evaluated conc. 1 μM, control DMSO = 1.
The mark [7] stands for this setting: fractions from Justicia procumbens extract, result in words.

Where two headings read alike, the source gives them in different places.

`COc1c2c(c(-c3ccc4c(c3)OCO4)c3cc4c(cc13)OCO4)C(=O)OC2` [(3), reference compound]: the figures for the Transglutaminase activity in assay [1] (setting [4]), in assay [1] (setting [5]) and in assay [1] (setting [6]) were 0.75 ± 0.49, 0.97 ± 0.43 and 0.70 ± 0.24, respectively.

Consider `COc1cc2cc3c(c(-c4ccc5c(c4)OCO5)c2cc1OC)C(=O)OC3` [Exemplified compound (12), 6,7-dimethoxy-9-(1,3-benzodioxol-5-yl)naphtho[2,3-c]furan-1(3H)-one], for which the Transglutaminase activity is on record as 1.20 ± 0.16 in assay [1] (setting [4]) and 2.80 ± 1.73 in assay [1] (setting [5]). In assay [1] (setting [7]), the “Transglutaminase activity of isolated HPLC fraction” value is recorded as “confirmed to exist”. Moreover, in assay [2], the “Ceramide amount (Average value in n = 2)” value is 1.30.

As for `COc1cc2c(OC(C)=O)c3c(c(-c4ccc5c(c4)OCO5)c2cc1OC)C(=O)OC3` [Exemplified compound (16), 4-acetoxy-6,7-dimethoxy-9-(1,3-benzodioxol-5-yl)naphtho[2,3-c]furan-1(3H)-one], the Transglutaminase activity was determined as 1.46 ± 0.54 in assay [1] (setting [5]) and 2.10 ± 0.86 in assay [1] (setting [6]).

With `O=C1OCc2cc3ccccc3c(-c3ccccc3)c21` [Exemplified compound (11), 9-phenylnaphtho[2,3-c]furan-1(3H)-one], the Transglutaminase activity was determined as 1.10 ± 0.22 in assay [1] (setting [4]), 1.29 ± 0.40 in assay [1] (setting [5]) and 1.48 ± 0.22 in assay [1] (setting [6]).

For the compound `COc1cc([C@@H]2c3cc4c(cc3C[C@H]3COC(=O)[C@@H]32)OCO4)cc(OC)c1OC` [(2), reference compound], the Transglutaminase activity in assay [1] (setting [6]) came out at 0.20 ± 0.18.

For `COc1cc2c(OC)c3c(c(-c4ccc5c(c4)OCO5)c2cc1OC)C(=O)OC3` [Exemplified compound (14), 4,6,7-trimethoxy-9-(1,3-benzodioxol-5-yl)naphtho[2,3-c]furan-1(3H)-one], the Transglutaminase activity in assay [1] (setting [4]) is 1.22 ± 0.51; in assay [1] (setting [5]) it was 2.42 ± 0.55; in assay [1] (setting [6]) it was 2.19 ± 0.98. Moreover, in assay [1] (setting [7]), the “Transglutaminase activity of isolated HPLC fraction” value is “confirmed to exist”.

Regarding `COc1cc2c(OC)c3c(c(-c4cc5c(cc4O)OCO5)c2cc1OC)C(=O)OC3` [(4), reference compound], the Transglutaminase activity is on record as 0.60 ± 0.28 in assay [1] (setting [4]), 0.39 ± 0.10 in assay [1] (setting [5]) and 0.22 ± 0.08 in assay [1] (setting [6]).

In the case of “Tuberculatin-5″-acetate [Exemplified compound (18)]”, the “Transglutaminase activity of isolated HPLC fraction” value in assay [1] is listed as “confirmed to exist”. Moreover, the Transglutaminase activity was 2.78 ± 0.19 in assay [1] (setting [5]) and 5.44 ± 0.19 in assay [1] (setting [6]). Besides, in assay [3], the “IVL gene amount (Average value in n = 2)” value was 1.32.

In the case of `COc1cc2c(O)c3c(c(-c4ccc5c(c4)OCO5)c2cc1OC)C(=O)OC3` [Exemplified compound (13), 4-hydroxy-6,7-dimethoxy-9-(1,3-benzodioxol-5-yl)naphtho[2,3-c]furan-1(3H)-one], the Transglutaminase activity in assay [1] (setting [4]) came out at 1.95 ± 0.53; in assay [1] (setting [5]), 1.75 ± 0.61.

`COc1cc([C@@H]2c3cc4c(c(OC)c3C[C@H]3COC(=O)[C@@H]32)OCO4)cc(OC)c1OC` [(1), reference compound]: the Transglutaminase activity in assay [1] (setting [6]) was determined as 0.24 ± 0.21.

For the compound `[Ca+2].[Cl-].[Cl-]` [Positive control (Ca^2+), CaCl2, reference compound], the Transglutaminase activity in assay [1] (CaCl2 1.5 mM positive control, control = 1) was determined as 1.51 ± 0.20.

As to `O=C1OCc2cc3ccc4c(c3cc21)OCO4` [Exemplified compound (19), furo[3′,4′,6,7]naphtho[1,2-d]-1,3-dioxole-9(7H)-one], the Transglutaminase activity in assay [1] (setting [5]) came to 1.98 ± 0.83; in assay [1] (setting [6]), 2.37 ± 0.26.

Turning to `CCOc1c2c(c(-c3ccc4c(c3)OCO4)c3cc(OC)c(OC)cc13)C(=O)OC2` [Exemplified compound (15), 4-ethoxy-6,7-dimethoxy-9-(1,3-benzodioxol-5-yl)naphtho[2,3-c]furan-1(3H)-one], the Transglutaminase activity in assay [1] (setting [4]) amounted to 1.25 ± 0.22; in assay [1] (setting [5]), 1.33 ± 0.39; in assay [1] (setting [6]), 1.66 ± 0.33.
